Measured values from patent US9550772B2, “Azaindole derivatives as multi kinase inhibitors” (ORIBASE PHARMA, priority 2012, dated 2017).
Like-named read-outs stand apart in the source and are kept apart here.

What was measured:
HepG2 cell line = assay: In vitro cell proliferation assay (MTT); type: cell-based; conditions: Homo sapiens, HepG2, 72 hr, read-out: EC50, anti-proliferative activity
How it was run: (§1)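 MTT read-out after 72 hr compound exposure, 10 nM–3 μM, duplicate wells. Seeding: 5×10^3 cells/well for cancer lines, 1×10^4 cells/well for HRMEC. EC50 from sigmoidal curve fit; DMSO = 0%, 1% SDS = 100%.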

H1975 cell line = assay: In vitro cell proliferation assay (MTT); type: cell-based; conditions: Homo sapiens, NCI-H1975, H1975, 72 hr, read-out: EC50, anti-proliferative activity
How it was run: as §1

HuCCT1 cell line = assay: In vitro cell proliferation assay (MTT); type: cell-based; conditions: Homo sapiens, HuCCT-1, HuCCT1, 72 hr, read-out: EC50, anti-proliferative activity
How it was run: as §1

A549 cell line = assay: In vitro cell proliferation assay (MTT); type: cell-based; conditions: Homo sapiens, A549, 72 h, read-out: EC50, anti-proliferative activity
How it was run: as §1

HT29 cell line = assay: In vitro cell proliferation assay (MTT); type: cell-based; conditions: Homo sapiens, HT-29, HT29, 72 hr, read-out: EC50, anti-proliferative activity
How it was run: as §1

HUVEC cells = assay: In vitro cell proliferation assay (MTT); type: cell-based; conditions: Homo sapiens, 72 hr, read-out: EC50, anti-proliferative activity
How it was run: as §1

EGFR (ErbB1) T790M L858R = biological target: T1, EGFR (ErbB1) T790M L858R (Homo sapiens, UniProt P00533, L858R/T790M); assay: In vitro kinase assay (Z'-LYTE, Invitrogen); type: biochemical; conditions: compound at 100 nM, ATP Km apparent, read-out: % of inhibition of the kinase compared to the control
T1 construct: purchased Invitrogen
How it was run: (§2)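 Compounds were tested at 100 nM in 1% DMSO final against each kinase with its peptide substrate, ATP at apparent Km, in 50 mM HEPES pH 7.5 with 10 mM MgCl2, 1 mM EGTA, 0.01% BRIJ-35. Phosphorylation was quantified by Z′-LYTE coupled protease/FRET emission ratio.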

EGFR (ErbB1) = biological target: T2, EGFR (ErbB1) (Homo sapiens, UniProt P00533); assay: In vitro kinase assay (Z'-LYTE, Invitrogen); type: biochemical; conditions: compound at 100 nM, ATP Km apparent, read-out: % of inhibition of the kinase compared to the control
T2 construct: purchased Invitrogen
How it was run: as §2

SRC = biological target: T3, SRC (Homo sapiens, UniProt P12931); assay: In vitro kinase assay (Z'-LYTE, Invitrogen); type: biochemical; conditions: compound at 100 nM, ATP Km apparent, read-out: % of inhibition of the kinase compared to the control
T3 construct: purchased Invitrogen
How it was run: as §2

BRAF = biological target: T4, BRAF (Homo sapiens, UniProt P15056); assay: In vitro kinase assay (Z'-LYTE, Invitrogen); type: biochemical; conditions: compound at 100 nM, ATP Km apparent, read-out: % of inhibition of the kinase compared to the control
T4 construct: purchased Invitrogen
How it was run: as §2

PDGFRA (PDGFR alpha) = biological target: T5, PDGFRA (PDGFR alpha) (Homo sapiens, UniProt P16234); assay: In vitro kinase assay (Z'-LYTE, Invitrogen); type: biochemical; conditions: compound at 100 nM, ATP Km apparent, read-out: % of inhibition of the kinase compared to the control
T5 construct: purchased Invitrogen
How it was run: as §2

KDR (VEGFR2) = biological target: T6, KDR (VEGFR2) (Homo sapiens, UniProt P35968); assay: In vitro kinase assay (Z'-LYTE, Invitrogen); type: biochemical; conditions: compound at 100 nM, ATP Km apparent, read-out: % of inhibition of the kinase compared to the control
T6 construct: purchased Invitrogen
How it was run: as §2

FGFR2 = biological target: T7, FGFR2 (Homo sapiens, UniProt P21802); assay: In vitro kinase assay (Z'-LYTE, Invitrogen); type: biochemical; conditions: compound at 100 nM, ATP Km apparent, read-out: % of inhibition of the kinase compared to the control
T7 construct: purchased Invitrogen
How it was run: as §2

HuH7 cell line = assay: In vitro cell proliferation assay (MTT); type: cell-based; conditions: Homo sapiens, Huh-7, HuH7, 72 hr, 100 nM < EC50 < 1 μM, read-out: EC50, anti-proliferative activity
How it was run: as §1

HuH6 Clone 5 cell line = assay: In vitro cell proliferation assay (MTT); type: cell-based; conditions: HUH-6-clone5, HuH6 Clone 5, 72 hr, read-out: EC50, anti-proliferative activity
How it was run: as §1

HRMEC cells = assay: In vitro cell proliferation assay (MTT); type: cell-based; conditions: 72 hr, read-out: EC50, anti-proliferative activity
How it was run: as §1

HeLa cell line = assay: In vitro cell proliferation assay (MTT); type: cell-based; conditions: Homo sapiens, 72 hr, 100 nM < EC50 < 1 μM, read-out: EC50, anti-proliferative activity
How it was run: as §1

MDA-MB-231 cell line = assay: In vitro cell proliferation assay (MTT); type: cell-based; conditions: Homo sapiens, MDA-MB-231, 72 hr, read-out: EC50, anti-proliferative activity
How it was run: as §1

T5 sequence (P16234 24-1089): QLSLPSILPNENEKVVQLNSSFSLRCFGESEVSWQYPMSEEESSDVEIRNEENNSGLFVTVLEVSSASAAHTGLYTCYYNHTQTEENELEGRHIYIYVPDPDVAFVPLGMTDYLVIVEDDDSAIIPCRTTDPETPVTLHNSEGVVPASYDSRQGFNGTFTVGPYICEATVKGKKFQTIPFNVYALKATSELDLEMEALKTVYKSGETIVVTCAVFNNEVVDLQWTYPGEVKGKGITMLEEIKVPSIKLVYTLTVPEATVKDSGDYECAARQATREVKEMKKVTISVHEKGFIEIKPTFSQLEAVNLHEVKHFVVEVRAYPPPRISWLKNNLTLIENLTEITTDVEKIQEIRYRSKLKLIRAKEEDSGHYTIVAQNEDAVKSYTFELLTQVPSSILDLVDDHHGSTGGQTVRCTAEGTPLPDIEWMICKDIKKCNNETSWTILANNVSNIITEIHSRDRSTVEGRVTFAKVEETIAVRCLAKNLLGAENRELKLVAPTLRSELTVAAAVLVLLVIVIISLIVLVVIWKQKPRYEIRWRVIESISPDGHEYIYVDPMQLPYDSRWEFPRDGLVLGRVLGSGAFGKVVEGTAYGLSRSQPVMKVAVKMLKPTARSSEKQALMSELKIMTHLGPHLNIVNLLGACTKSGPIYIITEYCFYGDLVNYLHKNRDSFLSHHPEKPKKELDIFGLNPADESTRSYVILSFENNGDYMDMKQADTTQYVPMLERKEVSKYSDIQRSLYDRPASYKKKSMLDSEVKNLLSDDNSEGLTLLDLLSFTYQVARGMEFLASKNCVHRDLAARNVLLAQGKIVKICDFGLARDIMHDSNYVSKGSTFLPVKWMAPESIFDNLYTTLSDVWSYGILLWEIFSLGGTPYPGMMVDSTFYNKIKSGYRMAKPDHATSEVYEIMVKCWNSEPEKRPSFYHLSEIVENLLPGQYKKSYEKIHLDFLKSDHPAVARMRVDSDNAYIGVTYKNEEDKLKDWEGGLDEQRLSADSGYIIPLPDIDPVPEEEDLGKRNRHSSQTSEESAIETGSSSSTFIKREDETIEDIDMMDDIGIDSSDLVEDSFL
T2 sequence (P00533 25-1210): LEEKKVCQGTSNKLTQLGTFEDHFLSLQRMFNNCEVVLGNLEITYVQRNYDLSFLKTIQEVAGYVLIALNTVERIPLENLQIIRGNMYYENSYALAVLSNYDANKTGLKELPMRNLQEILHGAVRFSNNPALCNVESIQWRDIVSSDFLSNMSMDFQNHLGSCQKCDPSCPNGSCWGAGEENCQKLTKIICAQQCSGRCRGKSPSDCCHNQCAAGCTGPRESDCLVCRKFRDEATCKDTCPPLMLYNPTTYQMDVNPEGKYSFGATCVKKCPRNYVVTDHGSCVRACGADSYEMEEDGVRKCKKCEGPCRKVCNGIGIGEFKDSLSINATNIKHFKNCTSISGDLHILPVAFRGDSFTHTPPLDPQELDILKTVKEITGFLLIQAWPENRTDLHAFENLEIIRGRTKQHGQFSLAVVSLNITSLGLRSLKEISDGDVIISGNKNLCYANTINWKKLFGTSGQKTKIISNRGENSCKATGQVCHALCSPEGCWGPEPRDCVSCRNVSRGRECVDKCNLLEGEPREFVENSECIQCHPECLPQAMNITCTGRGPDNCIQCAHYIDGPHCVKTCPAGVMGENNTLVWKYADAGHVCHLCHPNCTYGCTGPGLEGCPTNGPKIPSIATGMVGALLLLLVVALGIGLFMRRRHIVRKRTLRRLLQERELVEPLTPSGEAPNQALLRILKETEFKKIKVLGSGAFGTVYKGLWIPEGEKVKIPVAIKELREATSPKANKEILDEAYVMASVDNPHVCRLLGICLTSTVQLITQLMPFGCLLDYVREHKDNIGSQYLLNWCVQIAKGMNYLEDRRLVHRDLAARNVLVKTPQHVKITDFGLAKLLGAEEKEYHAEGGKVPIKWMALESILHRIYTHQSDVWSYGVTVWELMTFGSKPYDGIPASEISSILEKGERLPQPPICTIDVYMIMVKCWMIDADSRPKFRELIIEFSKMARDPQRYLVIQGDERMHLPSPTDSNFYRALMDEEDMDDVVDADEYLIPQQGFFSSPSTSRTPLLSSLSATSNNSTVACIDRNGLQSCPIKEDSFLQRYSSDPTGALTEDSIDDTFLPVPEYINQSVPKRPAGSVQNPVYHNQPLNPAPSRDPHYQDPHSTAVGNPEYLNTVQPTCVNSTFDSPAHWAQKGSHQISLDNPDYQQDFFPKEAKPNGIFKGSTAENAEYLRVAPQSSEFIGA
T1 sequence (P00533 25-1210 T790M/L858R): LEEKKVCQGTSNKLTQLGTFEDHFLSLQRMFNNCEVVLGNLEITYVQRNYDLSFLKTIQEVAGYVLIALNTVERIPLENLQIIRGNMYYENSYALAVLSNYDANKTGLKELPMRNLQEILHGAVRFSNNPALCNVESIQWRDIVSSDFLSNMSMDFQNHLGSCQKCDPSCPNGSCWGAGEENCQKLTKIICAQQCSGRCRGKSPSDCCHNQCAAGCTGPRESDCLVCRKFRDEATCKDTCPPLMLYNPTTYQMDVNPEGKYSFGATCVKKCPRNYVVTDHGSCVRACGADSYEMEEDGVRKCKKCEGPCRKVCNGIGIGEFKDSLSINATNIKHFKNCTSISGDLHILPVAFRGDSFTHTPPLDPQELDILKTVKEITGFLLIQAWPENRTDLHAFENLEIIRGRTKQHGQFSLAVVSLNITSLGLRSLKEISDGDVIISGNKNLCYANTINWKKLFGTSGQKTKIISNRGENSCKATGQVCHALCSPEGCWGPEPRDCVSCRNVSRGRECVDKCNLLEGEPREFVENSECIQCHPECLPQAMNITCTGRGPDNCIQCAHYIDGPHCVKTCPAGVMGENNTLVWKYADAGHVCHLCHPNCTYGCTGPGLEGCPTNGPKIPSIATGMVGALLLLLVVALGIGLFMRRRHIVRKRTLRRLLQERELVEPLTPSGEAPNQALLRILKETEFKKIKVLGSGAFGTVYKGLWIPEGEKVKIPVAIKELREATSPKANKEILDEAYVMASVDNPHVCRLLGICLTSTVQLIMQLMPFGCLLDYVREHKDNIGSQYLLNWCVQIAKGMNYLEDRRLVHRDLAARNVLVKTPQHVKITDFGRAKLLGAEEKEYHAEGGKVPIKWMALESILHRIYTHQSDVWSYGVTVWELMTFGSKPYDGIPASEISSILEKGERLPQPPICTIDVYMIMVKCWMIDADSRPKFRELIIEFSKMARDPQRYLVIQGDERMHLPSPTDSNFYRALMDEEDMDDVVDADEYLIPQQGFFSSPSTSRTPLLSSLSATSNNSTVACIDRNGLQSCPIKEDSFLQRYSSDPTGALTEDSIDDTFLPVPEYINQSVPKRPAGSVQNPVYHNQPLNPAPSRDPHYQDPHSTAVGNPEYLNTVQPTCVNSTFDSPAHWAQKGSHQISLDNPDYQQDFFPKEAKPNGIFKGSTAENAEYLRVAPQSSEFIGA
T6 sequence (P35968 20-1356): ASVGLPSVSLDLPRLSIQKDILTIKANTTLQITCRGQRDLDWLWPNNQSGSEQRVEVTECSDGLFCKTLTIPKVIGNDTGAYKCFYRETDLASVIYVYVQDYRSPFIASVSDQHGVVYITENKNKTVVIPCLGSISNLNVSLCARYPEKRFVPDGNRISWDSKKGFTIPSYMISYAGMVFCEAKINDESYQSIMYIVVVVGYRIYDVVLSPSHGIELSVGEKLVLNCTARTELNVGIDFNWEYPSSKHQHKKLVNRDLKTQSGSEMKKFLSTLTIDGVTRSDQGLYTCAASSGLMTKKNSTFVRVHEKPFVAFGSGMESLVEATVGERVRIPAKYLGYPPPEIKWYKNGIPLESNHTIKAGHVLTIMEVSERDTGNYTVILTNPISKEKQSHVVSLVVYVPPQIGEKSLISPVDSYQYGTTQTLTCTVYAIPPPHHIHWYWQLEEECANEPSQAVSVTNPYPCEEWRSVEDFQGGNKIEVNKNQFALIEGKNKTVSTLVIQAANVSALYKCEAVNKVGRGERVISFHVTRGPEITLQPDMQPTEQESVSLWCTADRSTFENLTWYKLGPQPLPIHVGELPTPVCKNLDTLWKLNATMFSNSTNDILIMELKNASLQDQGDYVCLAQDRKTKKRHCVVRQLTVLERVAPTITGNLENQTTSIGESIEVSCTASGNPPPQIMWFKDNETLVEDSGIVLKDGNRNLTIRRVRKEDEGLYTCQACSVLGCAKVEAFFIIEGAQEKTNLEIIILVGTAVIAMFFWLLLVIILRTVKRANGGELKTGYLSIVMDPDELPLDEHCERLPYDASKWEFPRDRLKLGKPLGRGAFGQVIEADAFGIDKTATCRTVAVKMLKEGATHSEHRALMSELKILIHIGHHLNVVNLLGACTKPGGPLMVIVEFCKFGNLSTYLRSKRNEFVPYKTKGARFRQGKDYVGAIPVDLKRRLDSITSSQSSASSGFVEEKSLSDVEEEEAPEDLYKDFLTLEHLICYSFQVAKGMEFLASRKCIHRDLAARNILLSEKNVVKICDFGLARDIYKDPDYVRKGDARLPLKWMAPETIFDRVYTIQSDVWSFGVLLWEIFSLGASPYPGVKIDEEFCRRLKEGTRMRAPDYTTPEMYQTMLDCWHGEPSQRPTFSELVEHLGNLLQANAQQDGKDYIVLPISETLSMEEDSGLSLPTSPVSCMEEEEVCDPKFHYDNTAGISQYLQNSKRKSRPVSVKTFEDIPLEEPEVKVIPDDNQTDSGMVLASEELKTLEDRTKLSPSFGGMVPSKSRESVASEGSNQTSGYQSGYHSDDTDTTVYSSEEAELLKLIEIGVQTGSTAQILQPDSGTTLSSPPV

Structure (SMILES)	EC50 (HepG2 cell line; EC50 ≧ 1 μM) [nM]	EC50 (A549 cell line; EC50 ≧ 1 μM) [nM]	EC50 (HT29 cell line; EC50 ≧ 1 μM) [nM]	inhibition at 0.1 µM (EGFR (ErbB1) T790M L858R) [%]	inhibition at 0.1 µM (EGFR (ErbB1)) [%]	inhibition at 0.1 µM (SRC) [%]	inhibition at 0.1 µM (BRAF) [%]	inhibition at 0.1 µM (PDGFRA (PDGFR alpha)) [%]	inhibition at 0.1 µM (KDR (VEGFR2)) [%]	inhibition at 0.1 µM (FGFR2) [%]	EC50 (HuH7 cell line) [nM]	EC50 (HuH6 Clone 5 cell line; EC50 ≧ 1 μM) [nM]	EC50 (H1975 cell line; EC50 ≧ 1 μM) [nM]	EC50 (HepG2 cell line; 100 nM < EC50 < 1 μM) [nM]	EC50 (HuCCT1 cell line; EC50 ≧ 1 μM) [nM]	EC50 (HUVEC cells; 100 nM < EC50 < 1 μM) [nM]	also measured
COC(=O)c1cc2cc(CCc3cc(NC(=O)c4ccc(CN5CCC(N(C)C)C5)c(C(F)(F)F)c4)ccc3C)cnc2[nH]1 (stereo not shown) [OR0775, 5-(2-{5-[4-(3-Dimethylamino-pyrrolidin-1-ylmethyl)-3-trifluoromethyl-benzoylamino]-2-methyl-phenyl}-ethyl)-1H-pyrrolo[2,3-b]pyridine-2-carboxylic acid methyl ester]	≥ 1000	–	–	≥ 50	≥ 50	≥ 50	≥ 50	≥ 50	≥ 50	≥ 50	100 to 1000	≥ 1000	–	–	≥ 1000	100 to 1000	–
COC(=O)c1cc2cc(C=Cc3cc(NC(=O)c4ccc(CN5CCN(C)CC5)c(C(F)(F)F)c4)ccc3C)cnc2[nH]1 [OR0777, 5-(-2-{2-Methyl-5-[4-(4-methyl-piperazin-1-ylmethyl)-3-trifluoromethyl-benzoylamino]-phenyl}-vinyl)-1H-pyrrolo[2,3-b]pyridine-2-carboxylic acid methyl ester]	–	≥ 1000	≥ 1000	< 50	≥ 50	≥ 50	< 50	≥ 50	≥ 50	≥ 50	100 to 1000	–	≥ 1000	100 to 1000	–	100 to 1000	EC50 (HuCCT1 cell line; 100 nM < EC50 < 1 μM): 100 to 1000 nM; EC50 (HuH6 Clone 5 cell line; 100 nM < EC50 < 1 μM): 100 to 1000 nM
COC(=O)c1cc2cc(COc3cc(NC(=O)c4ccc(CN5CCN(C)CC5)c(C(F)(F)F)c4)ccc3C)cnc2[nH]1 [OR0749, 5-{2-Methyl-5-[4-(4-methyl-piperazin-1-ylmethyl)-3-trifluoromethyl-benzoylamino]-phenoxymethyl}-1H-pyrrolo[2,3-b]pyridine-2-carboxylic acid methyl ester]	≥ 1000	≥ 1000	–	< 50	≥ 50	≥ 50	< 50	≥ 50	≥ 50	≥ 50	100 to 1000	≥ 1000	≥ 1000	–	≥ 1000	100 to 1000	EC50 (HT29 cell line; 100 nM < EC50 < 1 μM): 100 to 1000 nM
CC(=O)c1cc2cc(CCc3cc(NC(=O)c4ccc(CN5CCC(N(C)C)C5)c(C(F)(F)F)c4)ccc3C)cnc2[nH]1 (stereo not shown) [OR0798, N-{3-[2-(2-Acetyl-1H-pyrrolo[2,3-b]pyridin-5-yl)-ethyl]-4-methyl-phenyl}-4-(3-dimethylamino-pyrrolidin-1-ylmethyl)-3-trifluoromethyl-benzamide]	–	–	–	–	≥ 50	≥ 50	≥ 50	≥ 50	≥ 50	≥ 50	100 to 1000	–	–	100 to 1000	≥ 1000	–	EC50 (HeLa cell line): 100 to 1000 nM; EC50 (HRMEC cells; 100 nM < EC50 < 1 μM): 100 to 1000 nM; EC50 (A549 cell line; EC50 ≦ 100 nM): ≤ 100 nM; EC50 (HuH6 Clone 5 cell line; 100 nM < EC50 < 1 μM): 100 to 1000 nM; EC50 (MDA-MB-231 cell line; 100 nM < EC50 < 1 μM): 100 to 1000 nM; EC50 (HUVEC cells; EC50 ≦ 100 nM): ≤ 100 nM

The next lines start with results.

EC50 (HepG2 cell line; EC50 ≧ 1 μM) [nM]	EC50 (A549 cell line; EC50 ≧ 1 μM) [nM]	EC50 (HT29 cell line; EC50 ≧ 1 μM) [nM]	inhibition at 0.1 µM (EGFR (ErbB1) T790M L858R) [%]	inhibition at 0.1 µM (EGFR (ErbB1)) [%]	inhibition at 0.1 µM (SRC) [%]	inhibition at 0.1 µM (BRAF) [%]	inhibition at 0.1 µM (PDGFRA (PDGFR alpha)) [%]	inhibition at 0.1 µM (KDR (VEGFR2)) [%]	inhibition at 0.1 µM (FGFR2) [%]	EC50 (HuH7 cell line) [nM]	EC50 (HuH6 Clone 5 cell line; EC50 ≧ 1 μM) [nM]	EC50 (H1975 cell line; EC50 ≧ 1 μM) [nM]	EC50 (HepG2 cell line; 100 nM < EC50 < 1 μM) [nM]	Structure (SMILES)	EC50 (HuCCT1 cell line; EC50 ≧ 1 μM) [nM]	EC50 (HUVEC cells; 100 nM < EC50 < 1 μM) [nM]	also measured
≥ 1000	≥ 1000	≥ 1000	< 50	≥ 50	≥ 50	< 50	≥ 50	≥ 50	≥ 50	–	–	–	–	COC(=O)c1cc2cc(COc3cc(NC(=O)c4ccc(CN5CCC(N(C)C)C5)c(C(F)(F)F)c4)ccc3C)cnc2[nH]1 (stereo not shown) [OR0750, 5-{5-[4-(3-Dimethylamino-pyrrolidin-1-ylmethyl)-3-trifluoromethyl-benzoylamino]-2-methyl-phenoxymethyl}-1H-pyrrolo[2,3-b]pyridine-2-carboxylic acid methyl ester]	≥ 1000	100 to 1000	EC50 (H1975 cell line; 100 nM < EC50 < 1 μM): 100 to 1000 nM
≥ 1000	≥ 1000	≥ 1000	< 50	< 50	< 50	< 50	< 50	< 50	< 50	–	–	≥ 1000	–	COC(=O)c1cc2cc(CNc3cc(NC(=O)c4ccc(C)cc4)ccc3C)cnc2[nH]1 [OR0738, 5-{[2-Methyl-5-(4-methyl-benzoylamino)-phenylamino]-methyl}-1H-pyrrolo[2,3-b]pyridine-2-carboxylic acid methyl ester]	≥ 1000	–	EC50 (HUVEC cells; EC50 ≧ 1 μM): ≥ 1000 nM
–	≥ 1000	≥ 1000	–	–	–	–	–	–	–	–	–	–	–	C#Cc1cccc(Nc2ncnc3cc(OCCOC)c(OCCOC)cc23)c1 [Erlotinib, reference compound]	–	–	EC50 (HUVEC cells; EC50 ≧ 1 μM): ≥ 1000 nM
≥ 1000	≥ 1000	≥ 1000	< 50	≥ 50	≥ 50	< 50	≥ 50	≥ 50	≥ 50	–	–	≥ 1000	–	COC(=O)c1cc2cc(CNc3cc(NC(=O)c4ccc(CN5CCN(C)CC5)c(C(F)(F)F)c4)ccc3C)cnc2[nH]1 [OR0747, 5-({2-Methyl-5-[4-(4-methyl-piperazin-1-ylmethyl)-3-trifluoromethyl-benzoylamino]-phenylamino}-methyl)-1H-pyrrolo[2,3-b]pyridine-2-carboxylic acid methyl ester]	≥ 1000	100 to 1000	–
–	–	–	–	< 50	< 50	< 50	≥ 50	≥ 50	< 50	–	–	–	–	COC(=O)c1cc2cc(C=Cc3cc(NC(=O)c4ccc(CN5CCN(C)CC5)cc4)ccc3C)cnc2[nH]1 [OR0776, 5-(-2-{2-Methyl-5-[4-(4-methyl-piperazin-1-ylmethyl)-benzoylamino]-phenyl}-vinyl)-1H-pyrrolo[2,3-b]pyridine-2-carboxylic acid methyl ester]	–	–	EC50 (HRMEC cells; EC50 ≧ 1 μM): ≥ 1000 nM
–	–	≥ 1000	≥ 50	≥ 50	≥ 50	≥ 50	≥ 50	≥ 50	≥ 50	100 to 1000	≥ 1000	–	100 to 1000	COC(=O)c1cc2cc(CCc3cc(NC(=O)c4ccc(CN5CCN(C)CC5)c(C(F)(F)F)c4)ccc3C)cnc2[nH]1 [OR0748, 5-(2-{2-Methyl-5-[4-(4-methyl-piperazin-1-ylmethyl)-3-trifluoromethyl-benzoylamino]-phenyl}-ethyl)-1H-pyrrolo[2,3-b]pyridine-2-carboxylic acid methyl ester]	–	–	EC50 (HeLa cell line): 100 to 1000 nM; EC50 (H1975 cell line; 100 nM < EC50 < 1 μM): 100 to 1000 nM; EC50 (HuCCT1 cell line; 100 nM < EC50 < 1 μM): 100 to 1000 nM; EC50 (A549 cell line; 100 nM < EC50 < 1 μM): 100 to 1000 nM; EC50 (A549 cell line; EC50 ≦ 100 nM): ≤ 100 nM; EC50 (MDA-MB-231 cell line; EC50 ≦ 100 nM): ≤ 100 nM; EC50 (HUVEC cells; EC50 ≦ 100 nM): ≤ 100 nM
